Test results taken from patent publication US8017784B2, “Substituted sulfoxide compounds, methods for preparing the same and use thereof” (Livzon Pharmaceutical Group, Inc., priority 2005, dated 2011).

Tested on: Acute Gastric Ulcer of Rats
Experiment: Effect on acute gastric ulcer of rats (pyloric ligation method, Shay method)
Type: in vivo
Settings: for Average Volume of Gastric Juice / Index of Ulcer (sum of the long diameter of each ulcer) / Inhibition Ratio of index of ulcer / Inhibition Ratio of gastric juice: SD female rats, 3 mg/kg via duodenum; for Average Volume of Gastric Juice / Index of Ulcer (sum of the long diameter of each ulcer): 6 hours after dosing; for Inhibition Ratio of index of ulcer / Inhibition Ratio of gastric juice: 6 hours, versus control group; for Inhibition of gastric juice secretion and ulceration compared with racemate: rats, result in words
Experimental: The effect of optically pure (+)/(−)-5-(1H-pyrrol-1-yl)-2-[[(4-methoxy-3-methyl-2-pyridyl)-methyl]sulfinyl]-1-hydro-benzimidazole on the acute gastric ulcer of rats were investigated using a pyloric ligation method (Shay method), and the results were compared with a normal control group and a racemate group. The specific test methods were as follows.
Twenty-six healthy SD female adult rats were divided randomly into 4 groups and fasted, except water, for 24 hours. Each rat was then anesthesized with 30 mg/kg Sodium Pentobarbital and subjected to pyloric ligation. After that, 3 groups of rats (treated group) were administered immediately via dodecadactylon with a racemate, a levo-enantiomer and a dextro-enantiomer of 5-(1H-pyrrol-1-yl)-2-[[(4-methoxy-3-methyl-2-pyridyl)-methyl]sulfinyl]-1-hydro-benzimidazole, respectively, at a dose of 3 mg/kg, and the other group (control group) is administered with the same volume of solvent.
All rats were then fasted including water for 6 hours followed by being sacrificed. The stomach was removed from rats after cardiac orifice ligation, and the volume of gastric juice was collected. After being fixed with 10% formalin solution, the stomach was incised along the greater curvature of stomach, the gastric wall was unwraped, and the degree and number of ulcers of the gastric mucosa were observed visually. Sum of the long diameter of each ulcer was defined as the index of ulcer. All rats were housed in metabolic cages during the test.

## COc1ccnc(C[S+]([O-])c2nc3cc(-n4cccc4)ccc3[nH]2)c1C (single isomer, unassigned; (-)) [Levo-enantiomer, (−)-5-(1H-pyrrol-1-yl)-2-[[(4-methoxy-3-methyl-2-pyridyl)-methyl]sulfinyl]-1-hydro-benzimidazole]
3 mg/kg
  Average Volume of Gastric Juice: 1.4 ± 1.0 mL
  Index of Ulcer (sum of the long diameter of each ulcer): 6 ± 6 mm
  Inhibition Ratio of gastric juice: 68.3%
  Inhibition of gastric juice secretion and ulceration compared with racemate: more effective in inhibiting gastric juice secretion and ulceration as compared with their racemate
  Inhibition Ratio of index of ulcer: 75.6%

## COc1ccnc(C[S+]([O-])c2nc3cc(-n4cccc4)ccc3[nH]2)c1C (racemic) [Racemate, 5-(1H-pyrrol-1-yl)-2-[[(4-methoxy-3-methyl-2-pyridyl)-methyl]sulfinyl]-1-hydro-benzimidazole, reference compound]
3 mg/kg
  Average Volume of Gastric Juice: 3.2 ± 2.3 mL
  Index of Ulcer (sum of the long diameter of each ulcer): 14 ± 8 mm
  Inhibition Ratio of gastric juice: 30.8%
  Inhibition Ratio of index of ulcer: 41.8%

## COc1ccnc(C[S+]([O-])c2nc3cc(-n4cccc4)ccc3[nH]2)c1C (single isomer, unassigned; (+)) [Dextro-enantiomer, (+)-5-(1H-pyrrol-1-yl)-2-[[(4-methoxy-3-methyl-2-pyridyl)-methyl]sulfinyl]-1-hydro-benzimidazole]
3 mg/kg
  Average Volume of Gastric Juice: 2.6 ± 1.1 mL
  Index of Ulcer (sum of the long diameter of each ulcer): 6 ± 7 mm
  Inhibition Ratio of gastric juice: 43.2%
  Inhibition of gastric juice secretion and ulceration compared with racemate: more effective in inhibiting gastric juice secretion and ulceration as compared with their racemate
  Inhibition Ratio of index of ulcer: 75.6%
